Source: US10039806B2, “Methods and compositions for treating antiprogestin-resistant cancers” (Fundación Sales, priority 2011, dated 2018)

Assays:
C4-2-HI and 59-HI cells = test: (3H)-thymidine incorporation with 5azadC and RU-486 in 10% FCS; format: cell-based, mouse; conditions: 5 μM 5azadC, 100 nM RU-486; P<0.001
Procedure: (3H)-thymidine-uptake was used as an indirect method to evaluate cell proliferation. In brief, cells were seeded into 96-well microplates. After attachment (24 h), the cells were incubated for 24 h with 1% steroid-stripped FCS and then for 48 h with the experimental solutions to be tested in 1% chFCS. Fifty percent of the medium was replaced with fresh medium every 24 h. […] In experiments in which 5azadC was used, the experiments were carried out using proliferating cells (presence of 10% FCS) to guarantee the effect of the demethylating agent. Three different experiments were made using octuplicates, and the means and standard deviations of one representative experiment of the other three are shown.

IBH-6-pSG5 tumors = test: Xenograft in nude mice; format: in vivo, human; conditions: MFP 10 mg/kg/day; p<0.001
Text: (§1) BH-6 cell line was developed from an invasive ductal breast carcinoma (1). IBH-6 cells express basal levels of hormone receptors, they are tumorigenic and in vivo express higher levels of PRB than PRA (2). Cells were transfected with human PRB, PRA (pSG5-PRB, pSG5-PRA, kindly provided by K. Horwitz) or with the empty vector (pSG5), together with a plasmid encoding the neomycin resistance gene pIRES-N1(3), using Lipofectamine transfection reagent (Invitrogen) following the manufacturer's instructions. Transfected and selected cells were cultured in medium supplemented with […] G418 (neomycin analogue, GIBCO). The expression of PRB and PRA were analyzed by western blot and immunofluorescence (using Ab7 and Ab6 antibodies from Thermo Fisher). T47D-YA or YB were kindly provided by K. Horwitz and cultured as previously described (4).
Transfected and selected cells were grown up to confluence, washed with PBS, detached with 0.25% trypsin, centrifuged at 1000 rpm for 10 min and resuspended in a final concentration of 10^6 (IBH-6) or 5×10^6 (T47D) cells per 100 μl of culture medium. The cells were sc inoculated into the right flank of nu/nu (IBH-6) or NOD/LtSz-scid/IL-2Rgamma null (T47D-YA or -YB cells) female mice. […]

T47D-YA tumors = test: Xenograft in NOD/LtSz-scid/IL-2Rgamma null mice; format: in vivo, human
Text: as §1
(§2) Transfected and selected cells were grown up to confluence, washed with PBS, detached with 0.25% trypsin, centrifuged at 1000 rpm for 10 min and resuspended in a final concentration of 10^6 (IBH-6) or 5×10^6 (T47D) cells per 100 μl of culture medium. The cells were sc inoculated into the right flank of nu/nu (IBH-6) or NOD/LtSz-scid/IL-2Rgamma null (T47D-YA or -YB cells) female mice. Only in experiments involving T47D cells E2 silastic pellets (0.5 mg) were implanted sc into the back of the animals one week prior tumor cell inoculation and 70 μl of Matrigel were mixed with the cell suspension at the moment of injection. MFP (6 mg) silastic pellets were sc implanted when tumors reached 20-40 mm^2. For T47D cells, experiments were repeated inoculating both cell types (T47D-YA or -YB) simultaneously in the left or right flank of the mouse, respectively.
(§3) Sections of formalin-fixed, paraffin-embedded tissue were stained with PR (C-19), or Ki67 (Dako, M7248) antibodies using the avidin-biotin-peroxidase complex technique (Vectastain Elite ABC kit; Vector), as described previously (6). Positive cells were counted in 10 high-power fields (HPFs) of each section, using 1000× magnification, and expressed as the mean±SEM of the ratio between the number of positive events and the total cell number.

T47D-YB tumors = test: Xenograft in NOD/LtSz-scid/IL-2Rgamma null mice; format: in vivo, human
Text: as §1, §2, §3

C4-HI = test: MPA breast cancer model, responsive tumor in vivo; parameters: species or system mouse
[1] = test system: primary cultures of responsive tumors; test: Primary cultures of responsive tumors of the MPA model; format: cell-based, mouse
[2] = test system: primary cultures of responsive tumors; conditions: cited from earlier work
glucocorticoid receptor = molecular target: T1, glucocorticoid receptor (Homo sapiens, UniProt P04150); conditions: cited from earlier work
T1 sequence (P04150 1-777): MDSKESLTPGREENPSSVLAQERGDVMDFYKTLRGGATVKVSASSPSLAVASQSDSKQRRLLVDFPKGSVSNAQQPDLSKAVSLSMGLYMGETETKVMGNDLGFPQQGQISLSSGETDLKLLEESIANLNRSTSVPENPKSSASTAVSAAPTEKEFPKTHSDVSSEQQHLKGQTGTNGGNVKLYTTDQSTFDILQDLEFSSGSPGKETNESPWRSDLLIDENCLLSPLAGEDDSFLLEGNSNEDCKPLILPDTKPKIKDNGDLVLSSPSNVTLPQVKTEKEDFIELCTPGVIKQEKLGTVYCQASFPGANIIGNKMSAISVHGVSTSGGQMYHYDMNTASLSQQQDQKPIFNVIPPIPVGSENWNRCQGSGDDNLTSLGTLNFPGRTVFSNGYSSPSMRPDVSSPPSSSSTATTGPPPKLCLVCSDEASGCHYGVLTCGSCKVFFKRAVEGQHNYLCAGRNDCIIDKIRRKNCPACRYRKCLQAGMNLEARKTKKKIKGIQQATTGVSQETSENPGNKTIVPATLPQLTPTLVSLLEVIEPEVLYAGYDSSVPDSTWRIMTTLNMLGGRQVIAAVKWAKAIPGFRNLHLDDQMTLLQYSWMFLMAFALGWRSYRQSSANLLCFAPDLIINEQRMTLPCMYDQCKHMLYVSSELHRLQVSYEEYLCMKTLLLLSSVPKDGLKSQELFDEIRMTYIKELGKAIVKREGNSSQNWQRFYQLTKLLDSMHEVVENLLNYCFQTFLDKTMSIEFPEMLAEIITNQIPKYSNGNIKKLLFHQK

T47D cells = conditions: cited from earlier work
breast cancer = conditions: cited from earlier work
[3] = test system: thymic, renal pelvis, colon, pancreatic carcinomas, leiomyosarcoma, histiocytoma; conditions: 200 mg/day; cited from earlier work
mammary glands = conditions: 50 mg/every other day, three months; cited from earlier work
mammary gland = conditions: cited from earlier work
[4] = 28 postmenopausal PR+ patients, 200 mg/day

CC#C[C@]1(O)CC[C@H]2[C@@H]3CCC4=CC(=O)CCC4=C3[C@@H](c3ccc(N(C)C)cc3)C[C@@]21C [RU-486, mifepristone]
cell proliferation, (3H)-thymidine incorporation (C4-2-HI and 59-HI cells): did not alter cell proliferation | in vivo growth (IBH-6-pSG5 tumors): stimulated | tumor size (T47D-YA tumors; MFP pellet, E2 pellet 0.5 mg, p<0.05): reduced their size | mitotic figures and apoptosis (T47D-YA tumors; in vivo): Few mitotic figures and a high degree of apoptosis | nuclear MYC or CCND1 expression (IHC) (T47D-YA tumors; in vivo): decreased levels of nuclear MYC or CCND1 expression | tumor morphology (T47D-YA tumors; in vivo): morphological signs of tumor regression | tumor size (T47D-YB tumors; MFP pellet, E2 pellet 0.5 mg): no significant differences | nuclear MYC or CCND1 staining (IHC) (T47D-YB tumors; in vivo): intense nuclear staining | differentiation (histology) (C4-HI; mouse, in vivo): increase in differentiation | tumor growth (C4-HI; tumors with higher PR-A than PR-B, FIG. 15): completely inhibited | ERK phosphorylation [1]: increased ERK phosphorylation | MPA-induced or FGF2-induced cell proliferation ([2]; 1-100 nM): inhibited MPA-induced or FGF2-induced cell proliferation | cell proliferation at very low concentrations ([2]; 10-12 M): stimulate cell proliferation | antiglucocorticoid activity (glucocorticoid receptor): antiglucocorticoid effects, albeit at concentrations higher than those needed for its antiprogestin activity | effects on T47D cells (T47D cells; 5% FCS): inhibitory effects | proliferation of T47D and MCF-7 cells (T47D cells; MIF at micromolar concentrations): stimulate the proliferation | E2-induced cell proliferation (T47D cells; clone 11, ER- and PR-positive): specifically inhibit E2-induced cell proliferation | response rate (breast cancer; 22 patients, TAM-resistant metastases, 200 mg/day, following 3 months of therapy): 18% | side effects: lethargy (breast cancer; 28 postmenopausal PR+ patients, 200 mg/day, more than 8 weeks): 68% | partial response (breast cancer; [4]): 3 patients | side effects: anorexia (breast cancer; [4]): 39% | side effects: hot flashes (breast cancer; [4]): 50% | side effects: skin rash (breast cancer; [4]): 32% | side effects: vomiting (breast cancer; [4]): 29% | clinical response (breast cancer; eleven patients with metastases, 200-400 mg daily p.o.): objective response in one patient, six patients showed temporal stabilization, and four patients had progressive disease | clinical outcome [3]: Improvements and pain relief were observed in all patients | cell proliferation in mammary gland aspirates (mammary glands): Inhibition of cell proliferation | PR activation in luminal cells (mammary gland; (5 mg/kg) body weight): induced activation of the PR in luminal cells to an even greater degree than did the pure agonist R5020 | MPA-induced branching (mammary gland; BALB/c female mice, 10 mg/kg daily, one week): reverted MPA-induced branching | mammary hyperplasia (mammary gland; PR-A transgenic mice or FGF2-treated mice): unable to revert mammary hyperplasia
